Source: ChEMBL document CHEMBL1201861, “Genomics of Drug Sensitity in Cancer screening data, Wellcome Trust Sanger Institute”

Key:
Assay in all cases: cells
[1] = tested on: SK-NEP-1; format: functional, cell-based; settings: Homo sapiens;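 further: growth inhibition of human SK-NEP-1 cells, read out by a cell viability assay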
Description: SANGER: Inhibition of human SK-NEP-1 cell growth in a cell viability assay.

[2] = tested on: SK-N-FI; format: functional, cell-based, Homo sapiens; settings: Homo sapiens, SK-N-FI;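 further: cell viability assay measuring growth inhibition of human SK-N-FI cells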
Description: SANGER: Inhibition of human SK-N-FI cell growth in a cell viability assay.

[3] = tested on: HT1197; format: functional, cell-based, Homo sapiens, HT-1197; settings: Homo sapiens, HT1197
Description: SANGER: Inhibition of human HT-1197 cell growth in a cell viability assay.

[4] = tested on: KYSE-520 cell line; format: functional, cell-based, Homo sapiens; settings: Homo sapiens, KYSE-520;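 further: growth inhibition of human KYSE-520 cells, read out with a viability assay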
Description: SANGER: Inhibition of human KYSE-520 cell growth in a cell viability assay.

[5] = tested on: NCI-H2122; format: functional, cell-based, Homo sapiens; settings: Homo sapiens, NCI-H2122;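 further: growth inhibition of the cells, read out with a cell viability assay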
Description: SANGER: Inhibition of human NCI-H2122 cell growth in a cell viability assay.

[6] = tested on: NEC8; format: functional, cell-based, Homo sapiens; settings: Homo sapiens, NEC8;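 further: growth inhibition of human NEC8 cells, read out by a cell viability assay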
Description: SANGER: Inhibition of human NEC8 cell growth in a cell viability assay.

[7] = tested on: SW626; format: functional, cell-based, Homo sapiens; settings: Homo sapiens, SW626;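 further: growth inhibition of SW626 cells, measured with a cell viability assay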
Description: SANGER: Inhibition of human SW626 cell growth in a cell viability assay.

[8] = tested on: CTV-1; format: functional, cell-based; settings: Homo sapiens;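 further: growth inhibition of the cell line, read out with a cell viability assay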
Description: SANGER: Inhibition of human CTV-1 cell growth in a cell viability assay.

[9] = tested on: NCI-H2126; format: functional, cell-based, Homo sapiens; settings: Homo sapiens, NCI-H2126;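 further: growth inhibition of the cancer cell line, determined with a cell viability readout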
Description: SANGER: Inhibition of human NCI-H2126 cell growth in a cell viability assay.

[10] = tested on: Lu-65; format: functional, cell-based; settings: Homo sapiens;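 further: growth inhibition of Lu-65 cancer cells, read out by a cell viability assay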
Description: SANGER: Inhibition of human LU-65 cell growth in a cell viability assay.

[11] = tested on: LB2241-RCC; format: functional, cell-based, Homo sapiens; settings: Homo sapiens, LB2241-RCC;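 further: cell viability assay measuring how strongly the cultured human renal carcinoma line is prevented from growing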
Description: SANGER: Inhibition of human LB2241-RCC cell growth in a cell viability assay.

[12] = tested on: BXPC-3; format: functional, cell-based, Homo sapiens; settings: Homo sapiens, BXPC-3;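 further: growth inhibition of human BxPC-3 cells, read out by a cell viability assay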
Description: SANGER: Inhibition of human BxPC-3 cell growth in a cell viability assay.

[13] = tested on: SAS; format: functional, cell-based, Homo sapiens; settings: Homo sapiens, SAS;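 further: growth inhibition of SAS cells, read out with a cell viability assay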
Description: SANGER: Inhibition of human SAS cell growth in a cell viability assay.

[14] = tested on: HCC1806; format: functional, cell-based, Homo sapiens; settings: Homo sapiens, HCC1806;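 further: growth inhibition of the cancer cell line, determined with a cell viability assay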
Description: SANGER: Inhibition of human HCC1806 cell growth in a cell viability assay.

[15] = tested on: A101D; format: functional, cell-based, Homo sapiens; settings: Homo sapiens, A101D;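 further: growth inhibition of the cell line, measured with a viability assay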
Description: SANGER: Inhibition of human A101D cell growth in a cell viability assay.

[16] = tested on: HT; format: functional, cell-based; settings: Homo sapiens
Description: SANGER: Inhibition of human HT cell growth in a cell viability assay.

[17] = tested on: SK-MEL-28; format: functional, cell-based; settings: Homo sapiens;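 further: growth inhibition of human SK-MEL-28 cells, read out with a cell viability assay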
Description: SANGER: Inhibition of human SK-MEL-28 cell growth in a cell viability assay.

[18] = tested on: KALS-1; format: functional, cell-based, Homo sapiens; settings: Homo sapiens, KALS-1;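 further: growth inhibition of KALS-1 cells, determined with a cell viability assay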
Description: SANGER: Inhibition of human KALS-1 cell growth in a cell viability assay.

[19] = tested on: SW948; format: functional, cell-based, Homo sapiens; settings: Homo sapiens, SW948;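 further: growth inhibition of SW948 cells, read out with a cell viability assay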
Description: SANGER: Inhibition of human SW948 cell growth in a cell viability assay.

[20] = tested on: GCT; format: functional, cell-based, Homo sapiens; settings: Homo sapiens, GCT;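 further: GCT cell line proliferation inhibition, read out with a cell viability assay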
Description: SANGER: Inhibition of human GCT cell growth in a cell viability assay.

[21] = tested on: G-401; format: functional, cell-based, Homo sapiens; settings: Homo sapiens, G-401
Description: SANGER: Inhibition of human G-401 cell growth in a cell viability assay.

[22] = tested on: Becker; format: functional, cell-based, Homo sapiens; settings: Homo sapiens, Becker;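 further: growth inhibition of Becker cells, read out with a cell viability assay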
Description: SANGER: Inhibition of human Becker cell growth in a cell viability assay.

[23] = tested on: MG-63; format: functional, cell-based, Homo sapiens; settings: Homo sapiens, MG-63;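 further: growth inhibition of human MG-63 cells, read out with a cell viability assay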
Description: SANGER: Inhibition of human MG-63 cell growth in a cell viability assay.

[24] = tested on: ALL-PO; format: functional, cell-based; settings: Homo sapiens;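 further: growth inhibition of ALL-PO cells, read out by a cell viability assay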
Description: SANGER: Inhibition of human ALL-PO cell growth in a cell viability assay.

[25] = tested on: NCI-H1395; format: functional, cell-based, Homo sapiens; settings: Homo sapiens, NCI-H1395;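 further: cell viability assay read-out quantifying reduced proliferation of human NCI-H1395 cells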
Description: SANGER: Inhibition of human NCI-H1395 cell growth in a cell viability assay.

[26] = tested on: BT-20; format: functional, cell-based, Homo sapiens; settings: Homo sapiens, BT-20;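 further: cell viability assay measuring suppression of growth in human BT-20 cells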
Description: SANGER: Inhibition of human BT-20 cell growth in a cell viability assay.

[27] = tested on: UACC-893; format: functional, cell-based, Homo sapiens; settings: Homo sapiens, UACC-893
Description: SANGER: Inhibition of human UACC-893 cell growth in a cell viability assay.

[28] = tested on: LAMA-84; format: functional, cell-based; settings: Homo sapiens;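 further: growth inhibition of LAMA-84 cells, read out with a cell viability assay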
Description: SANGER: Inhibition of human LAMA-84 cell growth in a cell viability assay.

[29] = tested on: NCI-H1563; format: functional, cell-based, Homo sapiens; settings: Homo sapiens, NCI-H1563;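 further: growth inhibition of human NCI-H1563 cells, read out with a cell viability assay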
Description: SANGER: Inhibition of human NCI-H1563 cell growth in a cell viability assay.

[30] = tested on: DMS-114; format: functional, cell-based, Homo sapiens; settings: Homo sapiens, DMS-114
[31] = tested on: SW684; format: functional, cell-based, Homo sapiens; settings: Homo sapiens, SW684;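 further: growth inhibition of human SW684 cells, measured by a cell viability assay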
Description: SANGER: Inhibition of human SW684 cell growth in a cell viability assay.

[32] = tested on: IA-LM; format: functional, cell-based, Homo sapiens; settings: Homo sapiens, IA-LM;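 further: cell viability assay measuring growth inhibition of human IA-LM cells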
Description: SANGER: Inhibition of human IA-LM cell growth in a cell viability assay.

[33] = tested on: NB69; format: functional, cell-based, Homo sapiens; settings: Homo sapiens, NB69;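 further: growth inhibition of NB69 cells, determined by a cell viability assay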
Description: SANGER: Inhibition of human NB69 cell growth in a cell viability assay.

[34] = tested on: MCF7; format: functional, cell-based, Homo sapiens; settings: Homo sapiens, MCF7;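 further: growth inhibition of human MCF7 cells, read out with a cell viability assay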
Description: SANGER: Inhibition of human MCF7 cell growth in a cell viability assay.

[35] = tested on: HEC-1; format: functional, cell-based, Homo sapiens; settings: Homo sapiens, HEC-1;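 further: growth inhibition of the cell line, read out with a cell viability assay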
Description: SANGER: Inhibition of human HEC-1 cell growth in a cell viability assay.

[36] = tested on: NCI-H2087; format: functional, cell-based, Homo sapiens; settings: Homo sapiens, NCI-H2087;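 further: growth inhibition determined with a cell viability readout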
Description: SANGER: Inhibition of human NCI-H2087 cell growth in a cell viability assay.

[37] = tested on: Ca-Ski; format: functional, cell-based; settings: Homo sapiens;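 further: cell viability assay measuring inhibition of Ca-Ski cell growth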
Description: SANGER: Inhibition of human Ca-Ski cell growth in a cell viability assay.

[38] = tested on: YKG-1; format: functional, cell-based, Homo sapiens; settings: Homo sapiens, YKG-1;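 further: cell growth inhibition, read out with a viability assay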
Description: SANGER: Inhibition of human YKG-1 cell growth in a cell viability assay.

[39] = tested on: NB12; format: functional, cell-based, Homo sapiens; settings: Homo sapiens, NB12;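 further: growth inhibition of human NB12 cells, read out by a cell viability assay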
Description: SANGER: Inhibition of human NB12 cell growth in a cell viability assay.

[40] = tested on: KP-4; format: functional, cell-based, Homo sapiens; settings: Homo sapiens, KP-4; read-out: IC50;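 further: human KP-4 cells, with growth inhibition read out through a cell viability assay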
Description: SANGER: Inhibition of human KP-4 cell growth in a cell viability assay.

[41] = tested on: CTB-1; format: functional, cell-based; settings: Homo sapiens
Description: SANGER: Inhibition of human CTB-1 cell growth in a cell viability assay.

[42] = tested on: LB373-MEL-D; format: functional, cell-based, Homo sapiens; settings: Homo sapiens, LB373-MEL-D;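 further: growth inhibition of the cell line, read out in a cell viability assay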
Description: SANGER: Inhibition of human LB373-MEL-D cell growth in a cell viability assay.

[43] = tested on: NB13; format: functional, cell-based, Homo sapiens; settings: Homo sapiens, NB13;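 further: cell viability readout measuring growth inhibition of human NB13 cells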
Description: SANGER: Inhibition of human NB13 cell growth in a cell viability assay.

[44] = tested on: OS-RC-2; format: functional, cell-based, Homo sapiens; settings: Homo sapiens, OS-RC-2;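 further: growth inhibition of human OS-RC-2 cells, measured by a cell viability assay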
Description: SANGER: Inhibition of human OS-RC-2 cell growth in a cell viability assay.

[45] = tested on: NCI-H1838; format: functional, cell-based, Homo sapiens; settings: Homo sapiens, NCI-H1838;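 further: growth inhibition of NCI-H1838 cells, determined with a cell viability readout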
Description: SANGER: Inhibition of human NCI-H1838 cell growth in a cell viability assay.

[46] = tested on: ETK-1; format: functional, cell-based, Homo sapiens; settings: Homo sapiens, ETK-1;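 further: growth inhibition of human ETK-1 cells, read out with a cell viability assay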
Description: SANGER: Inhibition of human ETK-1 cell growth in a cell viability assay.

[47] = tested on: 5637; format: functional, cell-based, Homo sapiens; settings: Homo sapiens
Description: SANGER: Inhibition of human 5637 cell growth in a cell viability assay.

[48] = tested on: D-263MG; format: functional, cell-based, Homo sapiens; settings: Homo sapiens, D-263MG
Description: SANGER: Inhibition of human D-263MG cell growth in a cell viability assay.

[49] = tested on: SK-MEL-24; format: functional, cell-based; settings: Homo sapiens;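 further: growth inhibition read out by a cell viability assay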
Description: SANGER: Inhibition of human SK-MEL-24 cell growth in a cell viability assay.

[50] = tested on: SW 962; format: functional, cell-based, Homo sapiens; settings: Homo sapiens, SW 962;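 further: growth inhibition of human SW962 cells, read out by a cell viability assay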
Description: SANGER: Inhibition of human SW962 cell growth in a cell viability assay.

[51] = tested on: BHY; format: functional, cell-based, Homo sapiens; settings: Homo sapiens, BHY;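 further: cell growth inhibition read out by a viability assay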
Description: SANGER: Inhibition of human BHY cell growth in a cell viability assay.

[52] = tested on: SW1783; format: functional, cell-based; settings: Homo sapiens;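 further: cell growth inhibition measured with a viability assay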
Description: SANGER: Inhibition of human SW1783 cell growth in a cell viability assay.

CN(c1ncccc1CNc1nc(Nc2ccc3c(c2)CC(=O)N3)ncc1C(F)(F)F)S(C)(=O)=O [PF-00562271]
IC50 [1]: > 2.56 µM
IC50 [2]: > 2560 nM
IC50 [3]: > 2.56 µM
IC50 [4]: > 2560 nM
IC50 [5]: > 2560 nM
IC50 [6]: > 2560 nM
IC50 [7]: > 2560 nM
IC50 [8]: > 2560 nM
IC50 [9]: > 2560 nM
IC50 [10]: > 2560 nM
IC50 [11]: > 2560 nM
IC50 [12]: 2350 nM
IC50 [13]: > 2560 nM
IC50 [14]: > 2560 nM
IC50 [15]: > 2560 nM
IC50 [16]: > 2.56 µM
IC50 [17]: > 2560 nM
IC50 [18]: > 2560 nM
IC50 [19]: > 2560 nM
IC50 [20]: > 2560 nM
IC50 [21]: > 2560 nM
IC50 [22]: > 2560 nM
IC50 [23]: 806 nM
IC50 [24]: 1020 nM
IC50 [25]: > 2560 nM
IC50 [26]: > 2560 nM
IC50 [27]: > 2560 nM
IC50 [28]: > 2.56 µM
IC50 [29]: > 2560 nM
IC50 [30]: > 2560 nM
IC50 [31]: > 2560 nM
IC50 [32]: > 2560 nM
IC50 [33]: > 2560 nM
IC50 [34]: > 2560 nM
IC50 [35]: > 2560 nM
IC50 [36]: > 2560 nM
IC50 [37]: > 2560 nM
IC50 [38]: > 2560 nM
IC50 [39]: > 2.56 µM
IC50 [40]: > 2560 nM
IC50 [41]: > 2560 nM
IC50 [42]: > 2.56 µM
IC50 [43]: > 2560 nM
IC50 [44]: > 2560 nM
IC50 [45]: > 2560 nM
IC50 [46]: 2280 nM
IC50 [47]: > 2560 nM
IC50 [48]: > 2560 nM
IC50 [49]: > 2560 nM
IC50 [50]: > 2560 nM
IC50 [51]: 1660 nM
IC50 [52]: > 2560 nM

C=CCNC1=C2C[C@@H](C)C[C@H](OC)[C@H](O)[C@@H](C)/C=C(\C)[C@H](OC(N)=O)[C@@H](OC)/C=C\C=C(/C)C(=O)NC(=CC1=O)C2=O [TANESPIMYCIN]
IC50 [1]: > 1 µM
IC50 [2]: > 1000 nM
IC50 [3]: > 1 µM
IC50 [4]: 182 nM
IC50 [5]: 97.4 nM
IC50 [6]: > 1000 nM
IC50 [7]: 335 nM
IC50 [8]: 527 nM
IC50 [9]: 568 nM
IC50 [10]: 926 nM
IC50 [11]: 101 nM
IC50 [12]: 160 nM
IC50 [13]: 127 nM
IC50 [14]: 71.3 nM
IC50 [15]: 481 nM
IC50 [16]: > 1 µM
IC50 [17]: 113 nM
IC50 [18]: 114 nM
IC50 [19]: > 1000 nM
IC50 [20]: > 1000 nM
IC50 [21]: 104 nM
IC50 [22]: 38.9 nM
IC50 [23]: > 1000 nM
IC50 [24]: > 1000 nM
IC50 [25]: 187 nM
IC50 [26]: > 1000 nM
IC50 [27]: 637 nM
IC50 [28]: > 1 µM
IC50 [29]: 949 nM
IC50 [30]: > 1000 nM
IC50 [31]: 65.9 nM
IC50 [32]: > 1000 nM
IC50 [33]: 271 nM
IC50 [34]: 96.8 nM
IC50 [35]: 65.9 nM
IC50 [36]: 174 nM
IC50 [37]: 267 nM
IC50 [38]: 50.7 nM
IC50 [39]: > 1 µM
IC50 [40]: 47.5 nM
IC50 [41]: 328 nM
IC50 [42]: > 1 µM
IC50 [43]: 368 nM
IC50 [44]: 245 nM
IC50 [45]: > 1000 nM
IC50 [46]: 159 nM
IC50 [47]: 57.4 nM
IC50 [48]: 27.9 nM
IC50 [49]: 139 nM
IC50 [50]: 39.5 nM
IC50 [51]: 237 nM
IC50 [52]: 340 nM

Cn1cncc1[C@@](N)(c1ccc(Cl)cc1)c1ccc2c(c1)c(-c1cccc(Cl)c1)cc(=O)n2C [TIPIFARNIB]
IC50 [1]: 9.94 µM
IC50 [2]: > 16000 nM
IC50 [3]: 11.7 µM
IC50 [4]: > 16000 nM
IC50 [5]: 191 nM
IC50 [6]: > 16000 nM
IC50 [7]: 1370 nM
IC50 [8]: 4580 nM
IC50 [9]: > 16000 nM
IC50 [10]: > 16000 nM
IC50 [11]: 6160 nM
IC50 [12]: 4330 nM
IC50 [13]: > 16000 nM
IC50 [14]: 11900 nM
IC50 [15]: 1870 nM
IC50 [16]: 8.29 µM
IC50 [17]: > 16000 nM
IC50 [18]: > 16000 nM
IC50 [19]: > 16000 nM
IC50 [20]: > 16000 nM
IC50 [21]: 503 nM
IC50 [22]: 6400 nM
IC50 [23]: 1840 nM
IC50 [24]: 555 nM
IC50 [25]: > 16000 nM
IC50 [26]: > 16000 nM
IC50 [27]: > 16000 nM
IC50 [28]: 6.42 µM
IC50 [29]: > 16000 nM
IC50 [30]: > 16000 nM
IC50 [31]: > 16000 nM
IC50 [32]: 47.5 nM
IC50 [33]: > 16000 nM
IC50 [34]: 166 nM
IC50 [35]: 7150 nM
IC50 [36]: 2280 nM
IC50 [37]: 9170 nM
IC50 [38]: 526 nM
IC50 [39]: 7.99 µM
IC50 [40]: 13600 nM
IC50 [41]: 7810 nM
IC50 [42]: 8.85 µM
IC50 [43]: 4620 nM
IC50 [44]: 15000 nM
IC50 [45]: > 16000 nM
IC50 [46]: 21.5 nM
IC50 [47]: 1030 nM
IC50 [48]: > 16000 nM
IC50 [49]: 1710 nM
IC50 [50]: 2150 nM
IC50 [51]: 1050 nM
IC50 [52]: 1260 nM
